Test results: a melting point compilation (Tetko et al.; mined from patent text by program, amines drawn as free bases though some values may be those of a salt)

Row | SMILES | melting point [°C]
1 | C#CCN1N=C(c2ccc(OC)c(OC)c2)[C@@H]2CCCC[C@@H]2C1=O (relative stereo) | 118 to 121
2 | CC(C)(C)OC(=O)N1CCC(C#N)(CCl)CC1 | 114 to 116
3 | COc1ccc(C2(C#N)CCC(=O)C(C(N)=O)C2)cc1OCCl (centres undefined) | 154 to 155
4 | Cc1cc(=O)n2nc(S(=O)(=O)Cc3ccc(Cl)cc3)sc2n1 | 192 to 194
5 | CC(C)(C)c1ccc(S(=O)(=O)Nc2nc(-c3ncccn3)nc(OCCO)c2-c2cccs2)cc1 | 236 to 237
6 | CC(=O)OCC(=O)C1=CCC2C3CCC4=CC(=O)C=CC4(C)C3(F)C(O)CC12C (centres undefined) | 223 to 225
7 | O=C(NC1CCOC(O)C1)c1ccc2nonc2c1 (centres undefined) | 91 to 92
8 | N#C[C@@H]1CCCN1C(=O)CCl | 53 to 57
9 | CCCOc1nsc(NC(=O)C(C)C)c1C#N | 220 to 221
10 | Cc1oc(-c2ccco2)nc1COc1ccc(CCCC2OC(=O)NC2=O)cc1O (centres undefined) | 152 to 153
11 | Cc1ccc(S(=O)(=O)OC2=C(Br)C(=O)c3ccc4c(c3C2=O)CCC(C)(C)O4)cc1 | 168 to 170
12 | CS(=O)(=O)c1ccc(-c2cnn(CC(F)(F)F)c(=O)c2C2=CCCCC2)cc1 | 75 to 81
13 | NCCNC(=O)CCCOc1ccc(C2=NNC(=O)CC2)cc1 | 174 to 175
14 | Cc1nc(Cl)c([N+](=O)[O-])c(NCCOCCNC(=O)OC(C)(C)C)c1C | 70 to 73
15 | CN1CCC(c2c[nH]c3ccc(-n4ccnn4)cc23)CC1 | 251 to 254
16 | C/C(=C(\C#N)C(=S)/N=C/N(C)C)N1CCCN(c2ccc3c(c2)OCCO3)CC1 | 127 to 129
17 | COc1ccccc1Oc1ccc(Cl)cc1C(=O)O | 115 to 118
18 | O=C(O)CCC(Cc1ccccc1)(C(=O)C=Cc1ccc(Cl)cc1)c1ccccc1 (centres undefined) | 160 to 170
19 | COc1cccc(S(=O)(=O)N2CCc3cc(OCc4ccccc4)c(OC)cc3C2=O)c1 | 140 to 145
20 | Nc1ccsc1C(=O)NCC1CCN(C[C@H]2COc3ccc(Cl)cc3O2)CC1 | 200 to 202
21 | CC(C)(n1cncn1)C(O)(Cn1cncn1)c1ccc(F)cc1 (centres undefined) | 156 to 158
22 | ClCc1c(Br)c(Br)c(CCl)c(Br)c1Br | 232 to 233
23 | N#CC(C#N)c1cccc(Br)c1 | 97 to 99
24 | CC(N)Oc1cccc2c1ccn2S(=O)(=O)c1ccccc1F (centres undefined) | 147 to 150
25 | O=C(C#CCCc1cccc(CF)n1)Nc1ccc(F)cc1 | 110
26 | CCCCN(CCCC)C(=O)c1cc2ccccc2c(-c2ccccc2)n1 | 62

Row | SMILES | melting point [°C]
27 | C=C(C)C(=O)NCCCNC(=O)CC(C)=O | 93 to 94
28 | OCc1ccc(C23CNCC2C3)cc1 (centres undefined) | 80 to 82
29 | CCCC1(C(C)(C)C(=O)Oc2ccc(N)cc2)C(=O)NC(=O)NC1=O | 212 to 215
30 | O=C1CCC2(CC1)OC(c1ccccc1)c1ccccc12 (centres undefined) | 143 to 145
31 | O=CC1c2ccccc2C(C=O)c2cc(Cl)ccc21 (centres undefined) | 113 to 115
32 | CN(CCCNC1=CC(=O)c2scnc2C1=O)CCCNC1=CC(=O)c2scnc2C1=O | 223 to 224
33 | COc1cc2nc(N3CCN(c4ccc(Cl)nn4)CC3)nc(N)c2cc1OC | 269 to 270
34 | Cc1ccc(COc2cccnc2NC(=N)Nc2ccc(Cl)cc2)cc1 | 174 to 175
35 | CC(C(=O)O)(c1ccc(N2CCCC2)cc1)c1ccc(N2CCCC2)cc1 | 174 to 176
36 | CN1c2ccc(-c3ccc4ccccc4c3)cc2S(=O)(=O)c2cc(-c3ccc4ccccc4c3)ccc21 | 328 to 332
37 | COCCOc1ccc(Nc2nc(Nc3cc4c(cc3OC)CCN(CC(=O)N(C)C)CC4)ncc2Cl)c(S(=O)(=O)C(C)C)c1 | 65 to 75
38 | Cc1oc(-c2ccccc2)nc1COc1ccc2cc(Cn3cc(CCC(=O)O)c(-c4ccccc4)c3)ccc2c1 | 122 to 123
39 | COc1ccc(C(=O)Nc2c(C)c(C)c3c(c2C)C(c2ccc(C(C)C)cc2)C2(CCN(C)CC2)O3)cc1 (centres undefined) | 277 to 278
40 | O=C(O)Cc1ccc(CCCSc2ccc(Cl)cc2)cc1 | 94 to 96
41 | Cc1cnc2c(S(=O)(=O)Cl)cccc2c1 | 158 to 159
42 | CCCCn1c(C)c(C)cc(Oc2nc3ccccc3o2)c1=O | 106 to 108
43 | CCOC(=O)N1CCC(Nc2ccc(F)cc2[N+](=O)[O-])CC1 | 115 to 116
44 | O=C(O)C1=Cc2cc(-c3cccs3)ccc2OC1C(F)(F)F (centres undefined) | 209 to 212
45 | COc1ccc(-c2[nH]nc3c2C(=O)c2c(NC(=O)CN4CCC(O)CC4)cccc2-3)cc1 | > 300
46 | CCn1cc(C(=O)O)c(=O)c2c(F)c(F)c(N3CCNC(C)C3)c(F)c21 (centres undefined) | 220 to 222
47 | CN(C)CCNC(=O)Cc1ccc(NC(=O)OCc2ccccc2)cc1 | 126 to 127
48 | O=C(NCCCN1CCN(Cc2ccccc2)CC1)Nc1ccccc1 | 45 to 47
49 | COC(OC)c1cnc(-c2ccccc2)[nH]1 | 158 to 160
50 | Cc1ccc(CC2CNC(=O)O2)cc1 (centres undefined) | 144 to 146
51 | CN(c1ccncc1)c1csc2ncccc12 | 143 to 145
52 | O=C(NCc1ncc(Cl)cc1Cl)c1c(Cl)cccc1Cl | 161 to 165

Row | SMILES | melting point [°C]
53 | N#Cc1onc(-c2ccccc2)c1-c1ccc(S(N)(=O)=O)cc1 | 218 to 219
54 | O=C(O)C#Cc1ccc(Cl)cc1Cl | 161 to 163
55 | CC(C)Cc1nc2ccc(Br)cc2c(-c2ccccc2)c1CN | 129 to 130
56 | COC(=O)c1ccc(-c2nc(-c3cc(Cl)sc3Cl)cs2)cc1 | 149 to 150
57 | Cc1ccc(F)c(C(C)Oc2ccc3nc(NC(=O)NCCN4CCOCC4)sc3c2)c1F (centres undefined) | 92 to 95
58 | CC(C)(C)OC(=O)Nc1cccc(C2(O)COC2)c1 | 121 to 123
59 | NC(=CC(=O)c1ccncc1)C1CC1 | 124 to 125
60 | N=C1NC(=O)C(Cc2ccc(OCCN3CCOCC3)cc2)S1 (centres undefined) | 189 to 190
61 | Nc1c([N+](=O)[O-])cc(Br)c2c1CN(Cc1ccccc1)CC2 | 150 to 152
62 | CC(C)n1nc(C#Cc2cccc(F)c2)ccc1=O | 95.5 to 96.5
63 | COc1ccc(-c2[nH]cnc2-c2cc(OC)c([N+](=O)[O-])c(OC)c2)cc1O | 148 to 149
64 | CC(=O)Nc1cc(CO)ccn1 | 145
65 | N#Cc1cc(C(=O)NNC(=O)c2occc2-c2ccccc2Cc2ccccc2)ccc1O | 175 to 176
66 | O=C1Nc2ccc(-c3cc(F)cc(Br)c3)cc2C(C2CC2)(C2CC2)O1 | 228 to 229
67 | Cc1nc2c(O[C@H]3c4ccccc4C[C@@H]3O)cccn2c1CO | 174 to 175
68 | COc1ccc(Sc2ccccc2CCl)cc1 | 76 to 78
69 | Nc1nc(-n2cc(C(=O)O)c(=O)c3c(N)c(F)c(F)c(Cl)c32)c(F)cc1F | 280
70 | O=C(O)c1cc2ccccc2n1S(=O)(=O)c1cccc(Cl)c1 | 216 to 217
71 | CSc1cc(S(F)(F)(F)(F)F)ccc1C#N | 101 to 102
72 | O=C(NCCN(Cc1ccccc1)Cc1ccccc1)C1CCN(c2c(Cl)cncc2Cl)CC1 | 147 to 149
73 | CCCCCCOc1ccc(C=[N+]([O-])CCC)cc1 | 45
74 | Nc1nc2c(sc(=O)n2Cc2ccc(Br)cc2)c(=O)[nH]1 | > 320
75 | CC1CC(=O)c2cc([N+](=O)[O-])c(Br)cc2O1 (centres undefined) | 125 to 128
76 | Cn1nnc(-c2cc3c(Oc4ccc(Cl)cc4)cncc3s2)n1 | 131 to 133
77 | CC(C)(C)C(=O)Oc1ccc(CCNC(=O)c2cccnc2)cc1OC(=O)C(C)(C)C | 112 to 114
78 | CC1(c2nnc(S(C)(=O)=O)s2)CC(F)(F)C1(F)Cl (centres undefined) | 63

Row | SMILES | melting point [°C]
79 | Nc1c(Br)cc(N=C2NCCN2)cc1Br | 152 to 153
80 | COC(=O)c1cc(-c2ccc3cc4c(cc3c2)C(C)(C)CCC4(C)C)c[nH]1 | 140 to 143
81 | OCC1C2OCC(O2)C(OCc2ccccc2)C1O (centres undefined) | 111 to 113
82 | CC(C)Nc1nc(S(C)(=O)=O)nc(Cl)c1-c1c(F)cccc1Cl | 145 to 149
83 | CC(C)(C)c1ccc(Sc2ccc(C=C3SC(=S)NC3=O)cc2)cc1 | 211 to 212
84 | CC(C)(CC(=O)Nc1ccc2oc(-c3ccc4ccc(Cl)cc4n3)cc2c1)C(=O)O | 228 to 230
85 | CCOC(=O)c1ccc(-c2nc(CCl)c(C)o2)s1 | 101 to 102
86 | Cc1ccccc1-n1nc(-c2cccc(C(=O)O)c2)[nH]c1=O | > 310
87 | CC1=CCCC2C1(C)CCC(C)C2(C)CC1=CC(=O)C=CC1=O (centres undefined) | 62 to 64
88 | CC#CNC(=O)NC(=NC(=O)N(C)C)SC | 88 to 91
89 | Cc1nonc1-n1cc(C(=O)O)c(=O)c2cc(F)c(Cl)nc21 | 242 to 247
90 | CCCn1nc(-c2ccc(O)c(Cl)c2)c2cccc(Cl)c21 | 145 to 146
91 | CCC/C=C\c1nc(Cl)c(CO)n1Cc1ccc(-c2ccccc2)c(C(=O)O)c1 | 148 to 150
92 | COC(=O)c1ccc(CCCCc2c(N)nc(N)nc2O)cc1 | 203 to 205
93 | Clc1nc(N2CCOCC2)c2nnn(C3CCOCC3)c2n1 | 142
94 | Cc1cccc(C(NCC(=O)Nc2c(C(C)C)cccc2C(C)C)c2ccccc2)c1 (centres undefined) | 119 to 120
95 | Cc1cc(=O)c(OCc2ccccc2)c(C(=O)NC2CCC2)o1 | 69.3 to 71
96 | CCOCc1nc2c(N)nc3cc(-c4ccccc4)cnc3c2n1CCCONC(C)C | 142 to 144
97 | CCOc1ccc(C(=O)Nc2ccc3ccc(OC)nc3n2)cc1 | 145
98 | Cc1noc(-c2cc3c(OC[C@@H](O)CN4CCC(c5ccc6ccccc6c5)CC4)cccc3s2)n1 | 180 to 182
99 | CC(=O)OCN1C(=O)CN(CCN2CC(=O)N(COC(C)=O)C(=O)C2)CC1=O | 178 to 181
100 | CNC(=O)c1ccc(C=CC(=O)NCC(=O)N(C)c2ccc(C)c(CO)c2C)cc1 | 261 to 263
101 | O=C(CC1CCC2(CC1)OOC1(CCCCCCCCCCC1)OO2)N1CCS(=O)(=O)CC1 | 170 to 172
102 | C=CCOc1ccc(C(=O)Oc2ccc(OCCCCOC(=O)C(=C)C)cc2)cc1 | 62 to 63
103 | CCn1nc(C(N)=O)cc1CC(C)C | 125 to 126
104 | c1ccc2nc(N3CCNCC3)c(OCCOc3cncnc3)nc2c1 | 115 to 117
